This is an account of results in patent EP2065031A1, “Skin treatment composition” (Evonik Goldschmidt GmbH, priority 2007, dated 2009).

Series [1] in a line: solubility of arjunolic acid in water, cosmetic oils and solvents. In kind it is physicochemical. An excerpt:
Skin is subject to deterioration through the passage of time (chronological aging, dermatological disorders, hormonal changes, environmental abuse (wind, air conditioning, central heating, pollution) all of which may be accelerated by exposure of skin to radiation from the sun (photoaging). Chronological aging and photoaging is summarized under the term aging. Consumers are increasingly seeking cosmetic products which treat or delay the visible signs of aging skin such as wrinkles, lines, loss of elasticity, uneven skin tone, dry skin, sagging, hyperpigmentation and age spots. There continues to be a need, however, for alternative effective cosmetic compositions for topical application to skin for treating and delaying skin aging. […] This effect be boosted by combinations with at least one additional active selected from the group of anti-aging, anti-inflammatory, anti-cellulite, moisturization, skin barrier improving, anti-wrinkle, firming, soothing or calming active ingredients. As described above arjunolic acid is poorly soluble in common solvents: It is insoluble in water and poorly soluble in cosmetic oils like mineral oil, isopropyl myristate or other ester oils or cosmetic solvents like propylene glycol or glycerol. The solubility of arjunolic acid in propylene glycol is only 0.6%; in ispropylmyristate, mineral oil and glycerin less than 0.1% arjunolic acid are soluble. This leads to the problem that it is very difficult to keep a sufficient amount of arjunolic acid solubilized in the cosmetic preparation without crystallization.

The next series deals with TSP1. Nature of the series: TSP1 expression in reconstructed human epidermis (RHE) skin models, real time RT-PCR. As to conditions: 50 µl aqueous formulation containing 0.325% arjunolic acid, 48 hours, versus formulation without arjunolic acid, read-out: increased expression of TSP1. Format: cell-based. The protocol: Since thrombospondin 1 (TSP1) has been described by Murphy-Ullrich et al. 2000, Cytokine & Growth Factor Reviews; 11: 59-69 as one of the most important endogenous activators of TGF-β1 we investigated the effect of arjunolic acid on TSP1 expression in reconstructed human epidermis (RHE) skin models.
For this purpose RHE skin models (SkinEthic laboratories, Nice, France) were incubated with 50 µl of the test formulation (aqueous arjunolic acid formulation containing 0.325% arjunolic acid, 3% Glyceryl Stearate, 3% Ceteareth-20, 1% Stearyl Alcohol, 4% Cetearyl Ethylhexanoate/Isopropylmyristate and 4% Caprylic/Capric Triglyceride) in a humidified atmosphere containing 5 % CO2 for 48 hours. Then cell culture supernatants were removed and skin models were immediately transferred into a 2 ml reaction tube containing 1,5 ml RNAlater RNA stabilisation reagent (#76104, Qiagen, Hilden, Germany) to avoid RNA degradation. Controls received formulation without arjunolic acid only. […] Real time RT-PCR analysis was performed to quantify expression of TSP1. […] Results were analysed with SDS 2.0 software (Applied Biosystems). Relative quantification was performed according to the delta-delta-Ct method with 18s ribosomal RNA (18s rRNA) used as a house keeping gene.

Series [2] has as its system skin. Nature of the series: transepidermal water loss (Tewameter) in volunteers. In kind it is in vivo, human. The settings on record: formulation with 0.1625% arjunolic acid versus carrier, twice daily, 4 weeks, left inner forearm, figure 1. An excerpt:
(§1) For the study 30 volunteers were recruited. 15 volunteers got the test formulation with 0.1625% arjunolic acid, 15 got the formulation without active ingredient (carrier). They applied the test formulation twice daily over a period of 4 weeks on the left inner forearm. A Tewameter (TM 300, Courage & Khazaka, Cologne, D) was used to determine the transepidermal water loss. A corneometer (CM825, Courage & Khazaka, Cologne, D) was used to determine the skin hydration. The measurements were performed before the application started and after 4 weeks. Before the measurement started the panelists had to climatize in a climatic room at 21-22°C and 50% relative humidity for at least 15 min.

The test system of series [3] is skin. Nature of the series: skin hydration (corneometer) in volunteers. Format: in vivo, human. As to conditions: formulation with 0.1625% arjunolic acid, twice daily, 4 weeks, left inner forearm, figure 2.
Source text: as §1

Series [4] deals with skin. Nature of the series: skin elasticity (Cutometer) in volunteers. In kind it is in vivo, human. As to conditions: formulation containing 0.1625% arjunolic acid, twice daily, 8 weeks, left inner forearm. Here is the method:
Method: For this study 30 volunteers were recruited. 15 volunteers got the test formulation with 0.1625% arjunolic acid, 15 got the formulation without active ingredient (carrier). They applied the test formulation twice daily over a period of 8 weeks on the left inner forearm.
The skin elasticity was assessed with a Cutometer MPA 580 (Courage & Khazaka, Cologne, D) which measures the vertical deformation of the skin when sucked into the loop of a measuring probe and reversed into its original condition. From the stretching/release cycles different parameters describing the skin elasticity were calculated. The parameter R1 describes the remaining deformation after the first stretching cycle while R5 is known as netto elasticity (R5 = UR/UE).
For the stretching a vacuum of 450 mbar was kept for 5s, the relaxing time was also 5s. The measurement was carried out after a climatization of the volunteers at room temperature and 50 % relative humidity for at least 15 min. before the treatment started and after 8 weeks of application.

Series [5] has as its system skin. Nature of the series: skin scaliness (Visioscan camera) in volunteers. In kind it is in vivo, human. As to conditions: 0.25% arjunolic acid in the formulation as printed, versus carrier, twice daily, 4 weeks, left inner forearm, figure 5. Here is the method: For this study 30 volunteers were recruited. […] They applied the test formulation twice daily over a period of 4 weeks on the left inner forearm. The measurement was carried out after an acclimatization of the volunteers at room temperature and 50 % relative humidity before the treatment started and after 4 weeks of application.
For the evaluation of the skin scaliness a special camera (Visioscan VC 98, Courage & Khazaka, Cologne, D) was used. […] The picture taken with this camera is converted into a digital signal with 256 grey levels. Via the grey level distribution the software calculates the skin scaliness.

In series [6] the test system is human skin fibroblast cells. As to conditions: incubation of human skin fibroblast cells with 6.25 mg/mL arjunolic acid; cited from earlier work.
Series [7] deals with skin. The settings on record: moisturizer containing arjunolic acid, volunteers; cited from earlier work.

On to `CC1(C)CC[C@]2(C(=O)O)CC[C@]3(C)C(=CC[C@@H]4[C@@]5(C)C[C@@H](O)[C@H](O)[C@@](C)(CO)[C@@H]5CC[C@]43C)[C@@H]2C1` [arjunolic acid, 2a,3b,23-trihydroxyolean-12-en-28-oic acid], for which the solubility in glycerin result in series [1] (glycerin) was “less than 0.1%”. For the same molecule, the solubility in ispropylmyristate result in series [1] (ispropylmyristate) is “less than 0.1%”. Besides, the “solubility in mineral oil” value in series [1] (mineral oil) is “less than 0.1%”. In series [1] (propylene glycol), the “solubility in propylene glycol” value was 0.6%. In series [1] (water), the solubility in water result is “insoluble”. Besides, the fold induction at 0.325 % with TSP1 was about 10. Further, the “transepidermal water loss (TEWL)” value in the series with skin [2] is “improves skin barrier”. Besides, in the series with skin [3], the skin hydration entry is “increases skin hydration significantly”. In addition, the “R1, the remaining deformation after the first stretching cycle” value in the series on skin [4] (figure 3) is “improved significantly”. Further, in the series with skin [4] (figure 4), the “R5, the netto elasticity” value is recorded as “improved significantly”. Further, the “reduction of the scaliness” value with skin [5] is given as “improved further”. In addition, the collagen formation in series [6] is on record as 30.9 ng/mg. Further, the anti-wrinkle effects entry in the series with skin [7] is on record as “good anti-wrinkle effects”.
